Legend:
[1] = target: 5-hydroxytryptamine receptor 2A (Homo sapiens, UniProt P28223); experiment: Binding affinity to human 5HT2A receptor
[2] = target: Voltage-gated inwardly rectifying potassium channel KCNH2 (Homo sapiens, UniProt Q12809)
Description: Displacement of [3H]dofetilide from human ERG

[3] = target: T1, 5-hydroxytryptamine receptor 1A (Homo sapiens, UniProt P08908); experiment: biochemical
T1 sequence (P08908 whole entry): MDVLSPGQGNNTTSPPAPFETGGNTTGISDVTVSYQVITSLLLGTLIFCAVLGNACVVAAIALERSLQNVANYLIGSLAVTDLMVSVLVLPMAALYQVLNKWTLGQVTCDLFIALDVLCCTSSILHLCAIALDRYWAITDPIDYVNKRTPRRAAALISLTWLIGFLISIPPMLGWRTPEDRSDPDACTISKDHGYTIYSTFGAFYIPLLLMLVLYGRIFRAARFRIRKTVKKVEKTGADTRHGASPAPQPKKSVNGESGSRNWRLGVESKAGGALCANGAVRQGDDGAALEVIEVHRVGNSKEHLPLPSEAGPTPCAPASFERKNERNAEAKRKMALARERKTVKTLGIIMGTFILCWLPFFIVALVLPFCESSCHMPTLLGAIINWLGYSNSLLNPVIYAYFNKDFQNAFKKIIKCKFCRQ
Description: Displacement of [3H]-8-OH-DPAT from human 5HT1A receptor expressed in HeLa cells

[4] = target: T1, 5-hydroxytryptamine receptor 1A; experiment: Binding affinity to human 5HT1A receptor expressed in HeLa cells by scintillation proximity assay; format: cell-based
[5] = target: T2, Sodium-dependent serotonin transporter (Homo sapiens, UniProt P31645); experiment: Displacement of [3H]-citalopram from human serotonin transporter expressed in HEK 293 cells; format: cell-based, HEK293
T2 sequence (P31645 whole entry): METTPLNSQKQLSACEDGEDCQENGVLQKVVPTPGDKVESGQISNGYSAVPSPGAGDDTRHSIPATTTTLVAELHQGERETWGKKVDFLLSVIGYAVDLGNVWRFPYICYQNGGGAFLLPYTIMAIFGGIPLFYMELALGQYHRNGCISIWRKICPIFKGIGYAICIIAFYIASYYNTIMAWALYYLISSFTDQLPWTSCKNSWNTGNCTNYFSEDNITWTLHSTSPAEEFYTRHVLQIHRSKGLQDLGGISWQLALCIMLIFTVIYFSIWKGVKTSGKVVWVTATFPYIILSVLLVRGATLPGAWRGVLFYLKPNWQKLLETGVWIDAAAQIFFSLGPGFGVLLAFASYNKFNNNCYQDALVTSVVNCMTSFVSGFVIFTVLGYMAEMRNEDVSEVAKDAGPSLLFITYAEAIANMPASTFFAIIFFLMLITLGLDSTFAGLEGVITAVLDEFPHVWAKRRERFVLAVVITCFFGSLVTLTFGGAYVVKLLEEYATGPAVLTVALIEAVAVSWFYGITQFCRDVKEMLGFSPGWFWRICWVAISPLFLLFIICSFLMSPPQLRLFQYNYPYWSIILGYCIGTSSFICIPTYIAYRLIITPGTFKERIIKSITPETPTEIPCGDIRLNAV

[6] = target: T2, Sodium-dependent serotonin transporter; experiment: Displacement of [3H]-citalopram from human serotonin transporter expressed in HEK 293 cells by scintillation proximity assay; format: cell-based, HEK293
[7] = target: T3, 5-hydroxytryptamine receptor 1A (Homo sapiens) (UniProt P08908); experiment: Intrinsic activity at human […] 5HT1A receptor expressed in HeLa cells by [3H]-thymidine uptake assay; format: cell-based
T3 sequence (whole entry): T1 sequence (P08908 whole entry)

[8] = target: T3, 5-hydroxytryptamine receptor 1A (Homo sapiens); experiment: Intrinsic activity at human […] 5HT1A receptor expressed in HeLa cells by FLIPR assay; format: cell-based
[9] = test system: Mus musculus; experiment: In vivo intrinsic activity at D2 receptor in mouse brain assessed as inhibition of gamma-butyrolactone-induced increase in DOPA synthesis at 30 mg/kg, po administered 60 mins before gamma-butyrolactone challenge measured after 30 mins; format: functional
[10] = test system: Mus musculus; experiment: Antipsychotic activity in po dosed mouse assessed as inhibition of spontaneous locomotor activity; format: functional; conditions: read-out: MED
[11] = Apparent intrinsic clearance in human liver microsomes; format: ADME, Microsome
[12] = test system: Mus musculus; experiment: Induction of catalepsy in mouse at 30 mg/kg, po; format: organism-based; parameters: dose 30 mg/kg, route oral; conditions: in vivo

Chain of 5-hydroxytryptamine receptor 2A (P28223 whole entry): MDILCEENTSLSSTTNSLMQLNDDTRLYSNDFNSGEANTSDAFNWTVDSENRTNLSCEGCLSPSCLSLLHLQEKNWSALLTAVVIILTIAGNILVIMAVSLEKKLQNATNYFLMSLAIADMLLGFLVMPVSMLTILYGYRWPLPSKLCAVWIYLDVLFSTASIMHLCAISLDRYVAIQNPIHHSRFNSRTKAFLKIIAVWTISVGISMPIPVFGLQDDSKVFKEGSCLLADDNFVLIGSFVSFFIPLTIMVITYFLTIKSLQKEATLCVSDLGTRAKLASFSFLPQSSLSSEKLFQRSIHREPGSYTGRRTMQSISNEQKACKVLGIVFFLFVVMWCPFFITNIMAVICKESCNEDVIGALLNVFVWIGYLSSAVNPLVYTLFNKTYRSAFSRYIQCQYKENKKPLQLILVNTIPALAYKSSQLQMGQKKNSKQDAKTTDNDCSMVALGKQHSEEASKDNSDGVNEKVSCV
Chain of Voltage-gated inwardly rectifying potassium channel KCNH2 (Q12809 whole entry): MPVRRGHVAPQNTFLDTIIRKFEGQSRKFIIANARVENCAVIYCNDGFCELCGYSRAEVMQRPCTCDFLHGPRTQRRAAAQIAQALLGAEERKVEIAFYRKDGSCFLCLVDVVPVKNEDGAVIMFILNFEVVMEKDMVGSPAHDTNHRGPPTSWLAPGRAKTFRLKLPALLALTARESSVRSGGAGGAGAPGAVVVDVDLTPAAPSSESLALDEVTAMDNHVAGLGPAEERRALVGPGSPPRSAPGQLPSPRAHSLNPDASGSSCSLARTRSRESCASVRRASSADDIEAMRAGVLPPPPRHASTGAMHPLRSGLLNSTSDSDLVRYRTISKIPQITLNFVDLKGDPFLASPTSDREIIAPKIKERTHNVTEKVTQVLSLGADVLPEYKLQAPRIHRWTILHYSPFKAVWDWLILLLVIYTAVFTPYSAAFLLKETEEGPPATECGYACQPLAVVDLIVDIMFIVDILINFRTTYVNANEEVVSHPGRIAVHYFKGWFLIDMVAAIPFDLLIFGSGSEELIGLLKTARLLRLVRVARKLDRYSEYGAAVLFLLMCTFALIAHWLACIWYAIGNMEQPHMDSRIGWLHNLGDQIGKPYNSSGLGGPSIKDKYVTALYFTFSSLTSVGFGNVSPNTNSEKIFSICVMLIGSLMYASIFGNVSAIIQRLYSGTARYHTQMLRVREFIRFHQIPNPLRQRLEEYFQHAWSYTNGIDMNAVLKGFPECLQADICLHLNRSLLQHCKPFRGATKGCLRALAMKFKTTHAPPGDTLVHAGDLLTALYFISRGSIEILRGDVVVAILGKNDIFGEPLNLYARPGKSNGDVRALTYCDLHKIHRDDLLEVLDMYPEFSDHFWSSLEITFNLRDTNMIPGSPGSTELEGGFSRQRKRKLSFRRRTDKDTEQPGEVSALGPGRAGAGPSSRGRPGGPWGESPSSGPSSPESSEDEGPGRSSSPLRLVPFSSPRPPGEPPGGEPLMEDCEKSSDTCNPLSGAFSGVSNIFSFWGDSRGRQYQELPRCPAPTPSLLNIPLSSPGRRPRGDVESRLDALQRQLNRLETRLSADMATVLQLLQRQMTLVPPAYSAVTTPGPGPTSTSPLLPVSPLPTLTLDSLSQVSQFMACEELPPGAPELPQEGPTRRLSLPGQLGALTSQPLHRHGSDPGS

Row | SMILES | Ki [1] | Ki [4] | Ki [6] | also measured
1 | O=C1NCc2ccc(OCCCCN3CCN(c4cccc5cc(F)ccc45)CC3)cc21 | 9.53 nM | – | – | Ki [2]: 969 nM; Ki [3]: 13.4 nM
2 | O=C1NCc2cc(F)c(OCCCCN3CCN(c4cccc5ccccc45)CC3)cc21 | 13 nM | 0.637 nM | – | Ki [5]: 30.8 nM
3 | Cc1cc2c(cc1OCCCN1CCN(c3cccc4cc(F)ccc34)CC1)C(=O)NC2 | 52 nM | 0.517 nM | 13.6 nM | –
4 | O=C1NCc2cc(Cl)c(OCCCN3CCN(c4cccc5cccc(F)c45)CC3)cc21 | 8.84 nM | 0.859 nM | 20.2 nM | –
5 | O=C1NCc2ccc(OCCCN3CCN(c4cccc5cccc(F)c45)CC3)cc21 | – | – | – | Ki [2]: 1290 nM; Ki [3]: 0.0141 nM
6 | O=C1NCc2ccc(OCCCCN3CCN(c4cccc5cccc(F)c45)CC3)c(Cl)c21 | 1.13 nM | 4.25 nM | 213 nM | –
7 | O=C1NCc2ccc(OCCCN3CCN(c4cccc5ccccc45)CC3)c(Cl)c21 | 2.06 nM | 0.786 nM | 104 nM | –
8 | O=C1NCc2ccc(OCCCCN3CCN(c4cccc5cc(F)ccc45)CC3)c(F)c21 | 3.07 nM | 5.01 nM | – | Ki [5]: 2720 nM
9 | Cc1cc2c(cc1OCCCCN1CCN(c3cccc4cccc(F)c34)CC1)C(=O)NC2 | 55 nM | 3.61 nM | 118 nM | –
10 | Cc1c(OCCCCN2CCN(c3cccc4cc(F)ccc34)CC2)ccc2c1C(=O)NC2 | 14 nM | 17.5 nM | 47 nM | –
11 | O=C1NCc2ccc(OCCCCN3CCN(c4cccc5ccc(F)cc45)CC3)cc21 | 11.4 nM | – | – | Ki [3]: 0.838 nM
12 | Cc1cc2c(cc1OCCCCN1CCN(c3cccc4ccccc34)CC1)C(=O)NC2 | 36.8 nM | 0.803 nM | 504 nM | –
13 | O=C1NCc2ccc(OCCCN3CCN(c4cccc5cc(F)c(F)cc45)CC3)cc21 | 20.1 nM | – | – | Ki [2]: 907 nM; Ki [3]: 0.179 nM
14 | c1ccc2c(N3CCN(CCCCOc4ccc5c(c4)CNC5)CC3)cccc2c1 | 5.07 nM | – | – | Ki [2]: 1560 nM; Ki [3]: 0.204 nM
15 | O=C1NCc2cc(Cl)c(OCCCCN3CCN(c4cccc5cccc(F)c45)CC3)cc21 | 25.3 nM | 1.68 nM | 45.6 nM | –
16 | Cc1cc2c(cc1OCCCN1CCN(c3cccc4cccc(F)c34)CC1)C(=O)NC2 | 65.7 nM | 1.44 nM | 174 nM | –
17 | O=C1NCc2ccc(OCCCCN3CCN(c4cccc5c4COC5)CC3)cc21 | 126 nM | 6.88 nM | – | –
18 | O=C1NCc2ccc(OCCCCN3CCN(c4cccc5cc(F)c(F)cc45)CC3)cc21 | – | – | – | Ki [3]: 1.3 nM
19 | O=C1NCc2ccc(OCCCN3CCN(c4cccc5ccc(F)cc45)CC3)cc21 | 3.37 nM | – | – | Ki [3]: 0.0447 nM
20 | O=C1NCc2cc(Cl)c(OCCCCN3CCN(c4cccc5ccccc45)CC3)cc21 | 24.7 nM | 2.34 nM | 96.3 nM | –

Row | SMILES | Ki [1] | Ki [4] | Ki [6] | also measured
21 | O=C1NCc2cc(F)c(OCCCCN3CCN(c4cccc5ccc(F)cc45)CC3)cc21 | 10 nM | 1.77 nM | – | Ki [5]: 110 nM
22 | O=C1NCc2ccc(OCCCN3CCN(c4cccc5cc(F)ccc45)CC3)c(F)c21 | 5.41 nM | 3.04 nM | 24.7 nM | Ki [5]: 37.4 nM
23 | O=C1NCc2ccc(OCCCN3CCN(c4cccc5cccc(F)c45)CC3)c(Cl)c21 | 3.55 nM | 0.312 nM | 230 nM | –
24 | O=C1NCc2ccc(OCCCN3CCN(c4cccc5c4OCCC5)CC3)cc21 | 25.3 nM | 0.0501 nM | – | –
25 | O=C1NCc2ccc(OCCCCN3CCN(c4cccc5ccccc45)CC3)c(F)c21 | 1.08 nM | 3.62 nM | – | Ki [5]: 2520 nM
26 | O=C1NCc2ccc(OCCCCN3CCN(c4cccc5c4CCOC5)CC3)cc21 | – | – | – | Ki [3]: 1.99 nM
27 | Cc1cc2c(cc1OCCCN1CCN(c3cccc4ccccc34)CC1)C(=O)NC2 | 55.9 nM | 0.67 nM | 1040 nM | –
28 | O=C1NCc2cc(F)c(OCCCN3CCN(c4cccc5cc(F)ccc45)CC3)cc21 | 38.5 nM | 0.88 nM | 9.22 nM | Ki [5]: 22.2 nM
29 | O=C1NCc2ccc(OCCCN3CCN(c4cccc5cccc(F)c45)CC3)c(F)c21 | 3.45 nM | < 0.14 nM | – | Ki [5]: 160 nM
30 | O=C1NCc2cc(Cl)c(OCCCN3CCN(c4cccc5ccccc45)CC3)cc21 | 34.4 nM | 0.814 nM | 67.7 nM | –
31 | O=C1NCc2ccc(OCCCN3CCN(c4cccc5cc(F)ccc45)CC3)cc21 | 3.54 nM | – | – | Ki [2]: 439 nM; Ki [3]: 1.54 nM
32 | O=C1NCc2ccc(OCCCCN3CCN(c4cccc5c4CCO5)CC3)cc21 | 53.4 nM | 1.45 nM | – | –
33 | O=C1NCc2cc(F)c(OCCCN3CCN(c4cccc5ccc(F)cc45)CC3)cc21 | 2.68 nM | 0.341 nM | 419 nM | Ki [5]: 13.6 nM
34 | Cc1cc2c(cc1OCCCCN1CCN(c3cccc4cc(F)ccc34)CC1)C(=O)NC2 | 29.5 nM | 1.98 nM | 8.81 nM | –
35 | O=C1NCc2ccc(OCCCN3CCN(c4cccc5c4CCO5)CC3)cc21 | 4.29 nM | 1.46 nM | – | –
36 | O=C1NCc2ccc(OCCCCN3CCN(c4cccc5c4COCC5)CC3)cc21 | 5.44 nM | – | – | Ki [3]: 0.279 nM
37 | O=C1NCc2cc(F)c(OCCCCN3CCN(c4cccc5cccc(F)c45)CC3)cc21 | 3.49 nM | 0.118 nM | 42.6 nM | Ki [5]: 10.5 nM
38 | Fc1ccc2cccc(N3CCN(CCCOc4ccc5c(c4)CNC5)CC3)c2c1 | 0.72 nM | – | – | Intrinsic activity [7]: 73.3%; Ki [2]: 931 nM; Ki [3]: 0.102 nM
39 | Fc1ccc2cccc(N3CCN(CCCCOc4ccc5c(c4)CNC5)CC3)c2c1 | 0.483 nM | – | – | Ki [2]: 1680 nM; Ki [3]: 0.243 nM
40 | O=C1NCc2ccc(OCCCN3CCN(c4cccc5c4COCC5)CC3)cc21 | 11.1 nM | – | – | Ki [3]: 0.108 nM

Row | SMILES | Ki [1] | Ki [4] | Ki [6] | also measured
41 | O=C1NCc2ccc(OCCCN3CCN(c4cccc5c4CCC5)CC3)cc21 | 3.16 nM | > 4.04 nM | – | –
42 | O=C1NCc2cc(F)c(OCCCN3CCN(c4cccc5ccccc45)CC3)cc21 | 32.1 nM | 0.671 nM | – | Ki [5]: 54.6 nM
43 | O=C1NCc2ccc(OCCCCN3CCN(c4cccc5c4CCCC5)CC3)cc21 | 3.35 nM | 1.92 nM | – | –
44 | O=C1NCc2ccc(OCCCN3CCN(c4cccc5ccc(F)cc45)CC3)c(F)c21 | 0.904 nM | < 0.205 nM | 447 nM | Ki [5]: 1770 nM
45 | O=C1NCc2ccc(OCCCCN3CCN(c4cccc5c4CCC5)CC3)cc21 | 10.1 nM | 0.74 nM | – | –
46 | Cc1c(OCCCN2CCN(c3cccc4ccccc34)CC2)ccc2c1C(=O)NC2 | 9.43 nM | 0.615 nM | 194 nM | –
47 | O=C1NCc2cc(F)c(OCCCN3CCN(c4cccc5cccc(F)c45)CC3)cc21 | 1.19 nM | < 0.521 nM | – | Ki [5]: 15.6 nM
48 | O=C1CCc2ccc(OCCCCN3CCN(c4cccc(Cl)c4Cl)CC3)cc2N1 [ARIPIPRAZOLE] | – | – | – | Intrinsic activity [8]: 43%; Intrinsic activity [9]: 43%; minimal effective dose [10]: 3 mg/kg; CLint scaled [11]: 31.7 mL/min/kg; Activity [12]: Non-toxic
49 | O=C1NCc2ccc(OCCCCN3CCN(c4cccc5c4OCCC5)CC3)cc21 | 17.1 nM | 0.863 nM | – | –
50 | O=C1NCc2ccc(OCCCN3CCN(c4cccc5ccccc45)CC3)c(F)c21 | 2.21 nM | 0.128 nM | – | Ki [5]: 84.7 nM
51 | O=C1NCc2ccc(OCCCN3CCN(c4cccc5ccccc45)CC3)cc21 | – | 0.541 nM | – | Intrinsic activity [7]: 88.8%; Intrinsic activity [8]: 65.9%; Ki [2]: 2810 nM; Ki [3]: 0.0152 nM
52 | O=C1NCc2ccc(OCCCCN3CCN(c4cccc5cccc(F)c45)CC3)c(F)c21 | 0.568 nM | 2.09 nM | 48.1 nM | Ki [5]: 57.2 nM
53 | O=C1NCc2ccc(OCCCN3CCN(c4cccc5c4CCCC5)CC3)cc21 | 4.86 nM | 0.269 nM | – | –
54 | c1ccc2c(N3CCN(CCCOc4ccc5c(c4)CNC5)CC3)cccc2c1 | 1.76 nM | – | – | Intrinsic activity [7]: 77.8%; Ki [3]: 0.149 nM
55 | Cc1c(OCCCCN2CCN(c3cccc4ccccc34)CC2)ccc2c1C(=O)NC2 | 1.26 nM | 3.22 nM | 388 nM | –
56 | O=C1NCc2ccc(OCCCCN3CCN(c4cccc5ccc(F)cc45)CC3)c(F)c21 | 2.1 nM | 4.56 nM | – | Ki [5]: 259 nM
57 | Cc1c(OCCCCN2CCN(c3cccc4cccc(F)c34)CC2)ccc2c1C(=O)NC2 | 3.85 nM | 2.61 nM | 292 nM | –
58 | O=C1NCc2cc(F)c(OCCCCN3CCN(c4cccc5cc(F)ccc45)CC3)cc21 | 13.8 nM | 2.71 nM | 13 nM | Ki [5]: 9.1 nM
59 | Cc1c(OCCCN2CCN(c3cccc4cc(F)ccc34)CC2)ccc2c1C(=O)NC2 | 12.5 nM | 1.08 nM | 21.4 nM | –
60 | Cc1c(OCCCN2CCN(c3cccc4cccc(F)c34)CC2)ccc2c1C(=O)NC2 | 16.1 nM | 2.13 nM | 437 nM | –

From ChEMBL document CHEMBL1255556, “6-Alkoxyisoindolin-1-one based dopamine D2 partial agonists as potential antipsychotics” (Bioorg Med Chem Lett, 2010)
